The values that follow come from US6437138B1, “3-pyridyloxymethyl heterocyclic ether compounds useful in controlling chemical synaptic transmission” (priority 1996, dated 2002).

Where a name gives a salt, the structure may show the parent alone.

As a reminder, the melting point is the temperature, or range, at which the solid turns liquid.

`CN1CC[C@H]1COc1cnc(Cl)c(-c2ccc(Cl)cc2)c1` (as salt: citrate) [Example 143, 6-Chloro-5-(4-chlorophenyl)-3-(1-methyl-2-(S)-azetidialmethoxy)pyridine Citrate] gave a melting point of 78 to 79 °C.

As to `Clc1ncc(OC[C@@H]2CCN2)cc1C=Cc1ccncc1` (as salt: citric acid salt) [Example 89, 5-(2-(4-Pyridinyl)ethenyl)-6-chloro-3-(2-(S)-azetidnylmethoxy)pyridine Citric Acid Salt], the melting point was in the range of 195 to 197 °C.

For `CN1CCC[C@H]1COc1cncc(-c2ccco2)c1` (as salt: hydrochloride) [Example 5, 5-(2-Furanyl-3-(1-methyl-2-(S)-pyrrolidinylmethoxy)pyridine Dihydrochloride], the melting point fell in the range of 189 to 191 °C.

As for `CN1CCC[C@H]1COc1cncc(-c2cccs2)c1` (as salt: hydrochloride) [Example 6, 5-(2-Thienyyl)-3-(1-methyl-2-(S)-pyrrolidinylmethoxy)pyridine Dihydrochloride], the melting point lay in the range of 201 to 203 °C.

For `CN1CCC[C@H]1COc1cncc(C=Cc2ccncc2)c1` (as salt: hydrochloride) [Example 13, 5-(2-(4-Pyridinyl)ethenylyl)-3-((1-methyl-2-(S)-pyrrolidinylmethoxy)pyridine Triihydrochloride], the melting point lay within 187 to 190 °C.

Regarding `CN1CCC[C@H]1COc1cncc(C#CCCCC#N)c1` (as salt: hydrochloride) [Example 14, (5-(5-Cyano-1-pentynyl-3-(1-methyl-2-(S)-pyrrolidinylmethoxy)pyridine Dihydrochloride], the melting point was 165 to 167 °C.

Regarding `COC(=O)C=Cc1cncc(OC[C@@H]2CCCN2C)c1` (as salt: hydrochloride) [Example 16, 5-(2-(Methoxycarbonyl)ethenyl-3-(1-methyl-2-(S)-pyrrolidinylmethoxy)pyridine Dihydrochloride], the melting point was in the range of 128 to 130 °C.

In turn, `COC(=O)c1cncc(OC[C@@H]2CCCN2C)c1` (as salt: hydrochloride) [Example 27, 5-Methoxycarbonol-3-(1-methyl-2-(S)-pyrrolidinylmethoxy)pyridine Dihydrochloride] gave a melting point of 165 to 167 °C.

`CN1CCC[C@H]1COc1cncc(CCc2ccncc2)c1` (as salt: hydrochloride) [Example 29, 5-(2-(4-Pyridinnyl)ethyl)-3-(1-methyl-2-(S)-pyrrolidinnylmethoxy)pyridine Trihydrochloride] yielded a melting point of 148 to 150 °C.

As for `CN1CCC[C@H]1COc1cncc(-c2ccc3ccccc3c2)c1` (as salt: hydrochloride) [Example 31, 5-(2-Naphthalenyl-3-(1-methyl-2-(S)-pyrrolidinylmethoxy)pyridine Dihydrochloride], the melting point lay in the range of 248 to 251 °C.

`CN1CCC[C@H]1COc1cncc(-c2cnc3ccccc3c2)c1` (as salt: hydrochloride) [Example 35, 5-(3-Ouinolinyl)-3-(1-methyl-2-(S)-pyrrolidinylmethoxy)pyridine Trihydrochloride] returned a melting point of 184 to 186 °C.

In the case of `CN1CCC[C@H]1COc1cncc(-c2cc(C(F)(F)F)cc(C(F)(F)F)c2)c1` (as salt: hydrochloride) [Example 37, 5-(3,5-bis(Trifluoromehyl)phenyl)-3-(1-methyl-2-(S)-pyrrolidinylmethoxy)pyridine Dihydrochloride], the melting point lay within 68 to 70 °C.

With `CN1CCC[C@H]1COc1cncc(-c2ccc(F)c(Cl)c2)c1` (as salt: hydrochloride) [Example 42, 5-(3-Chloro-4-fluorolphenyl)-3-(1-methyl-2-(S)-pyrrolidinylmethoxy)pyridine Dihydrochloride], the melting point was 202 to 204 °C.

As for `CN1CCC[C@H]1COc1cnc(Cl)c(C=Cc2ccncc2)c1` (as salt: hydrochloride) [Example 50, 5-(2-(4-Pyridinyl)ethenyl)-6-chloro-3-(1-methyl-(2-(S)-pyrrolidinylmethoxy)pyridine Dihydrochloride], the melting point lay in the range of 218 to 222 °C.

Compound `CCCCCCC#Cc1cncc(OC[C@@H]2CCN2)c1` (as salt: hydrochloride) [Example 63, 5-Octynyl-3-(2-(S)-azetidinylmethoxy)pyridine Dihydrochloride] showed a melting point of 88 to 90 °C.

Compound `CN1CCC[C@@H]1COc1cnc(Cl)c(-c2ccc(Cl)cc2)c1` (as salt: hydrochloride) [Example 76, 5-(4-Clhorophenyl)-6-chloro-3-(1-methyl-2-(R)-pyrrolidinylmethoxy)pyridine Hydrochloride] gave a melting point of 176 to 178 °C.

In the case of `CN1CCC[C@@H]1COc1cnc(Cl)c(C=Cc2ccncc2)c1` (as salt: hydrochloride) [Example 82, 5-(2-(4-Pyridinnyl)ethenyl)-6-chloro-3-(1-methyl-2-(R)-pyrrolidinylmethoxy)pyridine Dihydrochloride], the melting point is 220 to 222 °C (dec.).

As for `CC(C)(C)C=CC=Cc1cc(OC[C@@H]2CCCN2)cnc1Cl` (as salt: hydrochloride) [Example 148, 6-Chloro-5-(5,5dimethyl-1,3-hexadienyl)-3-(2-(S)-pyrrilidinylmethoxy)pyridine Dihydrochloride], the melting point lay within 206 to 208 °C.

Compound `Clc1ncc(OC[C@@H]2CCCN2)cc1-c1cccs1` (as salt: hydrochloride) [Example 152, 6-Chloro-3-(2-(S)-pyrrolidinolmethoxy)-5-(2-thienyl)pyridine Dihydrochloride] had a melting point of 208 to 210 °C.

`CC(C)(C)C=CC=Cc1cncc(OC[C@@H]2CCN2)c1` (as salt: hydrochloride) [Example 163, 3-(2-(S)-Azetidinylmethoxy)-5-(5,5-dimethyl-1,3-hexadiene)pyridine Dihydrochloride] displayed a melting point of 142 to 144 °C.

`CN1CC[C@H]1COc1cncc(C=CC=CC(C)(C)C)c1` (as salt: hydrochloride) [Example 166, 5-(5,5-Dimethyl-1,3-hexadiene)-3-(1-methyl-2-(S)-azetidinylmethoxy)pyridine Dihydrochloride] came in with a melting point of 143 to 145 °C.

In turn, `C#Cc1cc(OC[C@@H]2CCCN2)cnc1Cl` (as salt: hydrochloride) [Example 194, 6-Chloro-5-(ethynyl-3-(2-(S)-pyrrolidinylmethoxy)pyridine Hydrochloride] yielded a melting point of 214 to 216 °C.

Turning to `COCCOc1cncc(OC[C@@H]2CCCN2C)c1` (as salt: hydrochloride) [Example 198, 5-Methoxyethoxy-3-(1-methyl-(2S)-pyrrolidinylmethoxy)pyridine Dihydrochloride], the melting point lay within 196 to 197 °C.

With `Nc1cccc(-c2cncc(OC[C@@H]3CCN3)c2)c1` (as salt: salt) [Example 65, 5-(3-Aminophenyl)-3-(2-(S)-azetidinylmethoxy)pyridine Hidrochloride], the melting point was in the range of 85 to 87 °C.

Compound `Clc1ncc(OC[C@@H]2CCN2)cc1-c1ccccc1` (as salt: salt) [Example 67, 5-Phenyl-6-chloro-3-(2-(S)-azetidinylmethoxy)pyridine Hidrochloride] showed a melting point of 148 to 150 °C.

As to `CN1CC[C@H]1COc1cnc(Cl)c(-c2ccccc2)c1` (as salt: salt) [Example 68, 5-Phenyl-6-chloro-3-(1-methyl-2-(S)-azetidinylmethoxy)pyridine Hidrochloride], the melting point lay within 187 to 188 °C.

On to `Clc1ncc(OC[C@H]2CCCN2)cc1-c1ccccc1` (as salt: salt) [Example 70], for which the melting point is 178 to 180 °C.

`C=Cc1cc(OC[C@@H]2CCN2C)cnc1C` (as salt: salt) [Example 196, 5-Ethenyl-6-methyl-3-(1-methyl-2-(S)-azetidinylmethoxy)pyridine]: the melting point is 140 to 143 °C.

For the compound `C=Cc1cc(OC[C@@H]2CCN2C)cnc1F` (hydrate or solvate) [Example 204, 5-Ethenyl-6-fluoro-3-(1-methyl-2-(S)-azetidinylmethoxy)pyridine], the melting point fell in the range of 156 to 158 °C.

In turn, `C=Cc1cncc(OC[C@@H]2CCCN2C)c1.Cl.Cl` [Example 8, 5-Ethenyl-3-(1-methyl-2-(S)-pyrrolidinylmethoxy)pyridine Dihydrochloride] registered a melting point of 152 to 156 °C.

`CCCCCCCCC#Cc1cncc(OC[C@@H]2CCCN2C)c1.Cl.Cl` [Example 9, 5-(1-Decynyl)-3-(1-methyl-2-(S)-pyrrolidinylmethoxy)pyridine Dihydrochloride] gave a melting point of 102 to 105 °C.

Regarding `Cl.Cl.Clc1ccc(-c2cncc(OC[C@@H]3CCCN3)c2)cc1` [Example 20, 5-(4-chlorophenyl)-3-(2-(S)-pyrrolidinylmethoxy)pyridine Dihydrochloride], the melting point lay within 180 to 182 °C.

As to `CC(=O)c1cc(OC[C@@H]2CCCN2)cnc1Cl.Cl.Cl` [Example 32, 5-Acetyl-6-chloro-3-(2-(S)-pyrrolidinylmethoxy)pyridine Dihydrochloride], the melting point lay within 173 to 176 °C.

Regarding `CC(C)(C)C=CC=Cc1cc(OC[C@H]2CCCN2)cnc1Cl.Cl.Cl` [Example 77, 5-(5,5-Dimethyl-1,3-hexadienyl)-6-chloro-3-(2-(R)-pyrrolidinylmethoxy)pyridine Dihydrochloride], the melting point fell in the range of 190 to 192 °C.

Take `CN1CCC[C@@H]1COc1cnc(Cl)c(C=CC=CC(C)(C)C)c1.Cl.Cl` [Example 78, 5-(5,5-Dimethyl-1,3-hexadienyl)-6-chloro-3-(1-methyl-2-(R)-pyrrolidinylmethoxy)pyridine Dihydrochloride]: the melting point is 194 °C (dec.).

As to `CCCCCCC#Cc1cc(OC[C@H]2CCCN2C)cnc1Cl.Cl.Cl` [Example 80, 5-(1-Octynyl)-6-chloro-3-(1-methyl-2-(R)-pyrrolidinylmethoxy)pyridine Dihydrochloride], the melting point is 114 to 116 °C (dec.).

For `CN1CCC[C@@H]1COc1cnc(Cl)c(CCc2ccncc2)c1.Cl.Cl.Cl` [Example 83, 5-(2-(4-Pyridinyl)ethyl)-6-chloro-3-(1-methyl-2-(R)-pyrrolidinylmethoxy)pyridine Trihydrochloride], the melting point lay in the range of 236 to 238 °C.
